Laboratory results from patent publication US10981926B2 (Janssen Pharmaceutica NV, priority 2016, dated 2021).

Key:
Assay type in all cases: cell-based
[1] = molecular target: T1, wild-type Androgen Receptor (AR-wt) (Homo sapiens (Human), UniProt P10275); assay: LNCaP-AR-wt ANT reporter assay (antagonist mode); conditions: for IC50: antagonist mode, pIC50 = −Log10(IC50 in Molar), read-out: LNCaP-AR-wt ANT pIC50 (converted); for Emax: maximum % inhibition of R1881 control response over the tested concentration range, read-out: LNCaP-AR-wt ANT MAX % Inh
[2] = molecular target: T1, wild-type Androgen Receptor (AR-wt); assay: LNCaP-AR-wt AG reporter assay (agonist mode); conditions: for EC50: agonist mode, pEC50 = −Log10(EC50 in Molar), read-out: LNCaP-AR-wt AG pEC50 (converted); for Emax: maximum % stimulation (agonist response) over the tested concentration range, read-out: LNCaP-AR-wt AG MAX % Stim
[3] = molecular target: T2, F876L mutant Androgen Receptor (AR-F876L) (Homo sapiens (Human), UniProt P10275, F877L); assay: LNCaP-AR-F876L ANT reporter assay (antagonist mode); conditions: for IC50: antagonist mode, pIC50 = −Log10(IC50 in Molar), read-out: LNCaP-AR-F876L ANT pIC50 (converted); for Emax: maximum % inhibition of R1881 control response over the tested concentration range, read-out: LNCaP-AR-F876L ANT MAX % Inh
[4] = molecular target: T2, F876L mutant Androgen Receptor (AR-F876L); assay: LNCaP-AR-F876L AG reporter assay (agonist mode); conditions: for EC50: agonist mode, pEC50 = −Log10(EC50 in Molar), read-out: LNCaP-AR-F876L AG pEC50 (converted); for Emax: maximum % stimulation (agonist response) over the tested concentration range, read-out: LNCaP-AR-F876L AG MAX % Stim

T1 sequence (P10275 whole entry): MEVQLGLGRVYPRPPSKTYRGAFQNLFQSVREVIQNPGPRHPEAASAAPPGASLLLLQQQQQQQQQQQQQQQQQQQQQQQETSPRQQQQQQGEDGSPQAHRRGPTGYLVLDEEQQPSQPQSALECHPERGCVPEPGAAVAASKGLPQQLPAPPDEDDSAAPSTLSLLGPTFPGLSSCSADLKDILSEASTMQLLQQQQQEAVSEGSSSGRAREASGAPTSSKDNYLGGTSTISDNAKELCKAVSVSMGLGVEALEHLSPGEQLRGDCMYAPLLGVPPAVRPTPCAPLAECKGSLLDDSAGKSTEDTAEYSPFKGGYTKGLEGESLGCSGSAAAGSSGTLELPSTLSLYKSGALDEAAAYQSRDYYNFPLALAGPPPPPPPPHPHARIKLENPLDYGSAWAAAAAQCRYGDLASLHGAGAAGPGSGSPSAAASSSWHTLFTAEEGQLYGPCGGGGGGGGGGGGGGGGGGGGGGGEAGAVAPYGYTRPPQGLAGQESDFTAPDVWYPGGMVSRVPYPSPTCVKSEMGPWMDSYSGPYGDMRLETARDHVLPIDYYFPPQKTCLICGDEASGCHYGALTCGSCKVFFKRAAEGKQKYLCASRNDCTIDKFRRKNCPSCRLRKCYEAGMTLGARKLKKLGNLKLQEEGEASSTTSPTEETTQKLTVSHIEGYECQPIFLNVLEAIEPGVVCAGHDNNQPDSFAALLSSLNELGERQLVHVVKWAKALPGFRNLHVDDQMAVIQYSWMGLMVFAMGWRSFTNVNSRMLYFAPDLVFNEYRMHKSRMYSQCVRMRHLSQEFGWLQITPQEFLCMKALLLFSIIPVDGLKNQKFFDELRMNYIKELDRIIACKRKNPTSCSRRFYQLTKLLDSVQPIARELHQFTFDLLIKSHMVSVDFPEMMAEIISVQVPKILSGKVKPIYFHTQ
T2 sequence (P10275 whole entry F877L): as the sequence (P10275 whole entry) above, with F877L counted along it

| Compound | IC50 [1] | Emax [1] | EC50 [2] | Emax [2] | IC50 [3] | Emax [3] | EC50 [4] | Emax [4] |
| --- | --- | --- | --- | --- | --- | --- | --- | --- |
| N#Cc1ncc(N2C(=O)C3(CCC3)N(c3ccc(OC4CC5CC4CN5)cc3)C2=S)cc1C(F)(F)F [Cpd 150, (R,S)-5-[8-[4-(2-azabicyclo[2.2.1]heptan-5-yloxy)phenyl]-5-oxo-7-thioxo-6,8-diazaspiro[3.4]octan-6-yl]-3-(trifluoromethyl)pyridine-2-carbonitrile] | 490 nM | 102% | > 15100 nM | 0.4% | 245 nM | 103% | > 15100 nM | -0.2% |
| CC(C)(C)OC(=O)N1CCC12CC(Oc1ccc(N3C(=S)N(c4cnc(C#N)c(C(F)(F)F)c4)C(=O)C34CCC4)cn1)C2 (stereo not drawn) [Cpd 153, tert-butyl 6-[[5-[6-[6-cyano-5-(trifluoromethyl)-3-pyridyl]-5-oxo-7-thioxo-6,8-diazaspiro[3.4]octan-8-yl]-2-pyridyl]oxy]-3-azaspiro[3.3]heptane-3-carboxylate] | 398 nM | 101% | > 15100 nM | 0.1% | 339 nM | 100% | > 15100 nM | -0.1% |
| N#Cc1ncc(N2C(=O)C3(CCC3)N(c3ccc4[nH]ncc4c3)C2=S)cc1Cl [Cpd 155, 3-chloro-5-[8-(1H-indazol-5-yl)-5-oxo-7-thioxo-6,8-diazaspiro[3.4]octan-6-yl]pyridine-2-carbonitrile] | 302 nM | 97.4% | > 15100 nM | 1.1% | 219 nM | 98% | > 15100 nM | 2.6% |
| N#Cc1ncc(N2C(=O)C3(CCC3)N(c3ccc(OC4CCN5CCCC5C4)cc3)C2=S)cc1C(F)(F)F (stereo not drawn) [Cpd 156, 5-[8-[4-(1,2,3,5,6,7,8,8a-octahydroindolizin-7-yloxy)phenyl]-5-oxo-7-thioxo-6,8-diazaspiro[3.4]octan-6-yl]-3-(trifluoromethyl)pyridine-2-carbonitrile] | 282 nM | 100% | > 15100 nM | 1% | 178 nM | 101% | > 15100 nM | 0.9% |
| N#Cc1ncc(N2C(=O)C3(CCC3)N(c3ccc(OC4CCN(CC(O)CN)CC4)cc3)C2=S)cc1C(F)(F)F (stereo not drawn) [Cpd 157, 5-[8-[4-[[1-(3-amino-2-hydroxy-propyl)-4-piperidyl]oxy]phenyl]-5-oxo-7-thioxo-6,8-diazaspiro[3.4]octan-6-yl]-3-(trifluoromethyl)pyridine-2-carbonitrile] | 724 nM | 102% | > 15100 nM | -0.2% | 501 nM | 99.8% | > 15100 nM | 0% |
| N#Cc1ncc(N2C(=O)C3(CCC3)N(c3ccc4c(cnn4CCO)c3)C2=S)cc1C(F)(F)F [Cpd 159, 5-[8-[1-(2-hydroxyethyl)indazol-5-yl]-5-oxo-7-thioxo-6,8-diazaspiro[3.4]octan-6-yl]-3-(trifluoromethyl)pyridine-2-carbonitrile] | 1350 nM | 100% | > 15100 nM | 0.2% | 309 nM | 100% | > 15100 nM | 0.2% |
| COCCn1ncc2ccc(N3C(=S)N(c4cnc(C#N)c(C(F)(F)F)c4)C(=O)C34CCC4)cc21 [Cpd 160, 5-[8-[1-(2-methoxyethyl)indazol-6-yl]-5-oxo-7-thioxo-6,8-diazaspiro[3.4]octan-6-yl]-3-(trifluoromethyl)pyridine-2-carbonitrile] | 1230 nM | 103% | > 15100 nM | 0.1% | 708 nM | 101% | > 15100 nM | 0% |
| N#Cc1ncc(N2C(=O)C3(CCC3)N(c3ccc4c(cnn4CCO)c3)C2=S)cc1Cl [Cpd 163, 3-chloro-5-[8-[1-(2-hydroxyethyl)indazol-5-yl]-5-oxo-7-thioxo-6,8-diazaspiro[3.4]octan-6-yl]pyridine-2-carbonitrile] | 724 nM | 100% | > 15100 nM | 0.4% | 288 nM | 99.3% | > 15100 nM | 0.1% |
| COc1cc(N2C(=O)C3(CCC3)N(c3ccc4nn(CCO)cc4c3)C2=S)cnc1C#N [Cpd 164, 5-[8-[2-(2-hydroxyethyl)indazol-5-yl]-5-oxo-7-thioxo-6,8-diazaspiro[3.4]octan-6-yl]-3-methoxy-pyridine-2-carbonitrile] | 537 nM | 102% | > 15100 nM | 0.3% | 295 nM | 101% | > 15100 nM | 0% |
| N#Cc1ncc(N2C(=O)C3(CCC3)N(c3ccc(OC4CC5CC4CN5)nc3)C2=S)cc1C(F)(F)F [Cpd 165, (R,S)-5-[8-[6-(2-azabicyclo[2.2.1]heptan-5-yloxy)-3-pyridyl]-5-oxo-7-thioxo-6,8-diazaspiro[3.4]octan-6-yl]-3-(trifluoromethyl)pyridine-2-carbonitrile] | 324 nM | 101% | > 15100 nM | 0.2% | 316 nM | 100% | > 15100 nM | 0% |
| CN1CCC12CC(Oc1ccc(N3C(=S)N(c4cnc(C#N)c(C(F)(F)F)c4)C(=O)C34CCC4)cc1)C2 (stereo not drawn) [Cpd 166, 5-[8-[4-[(3-methyl-3-azaspiro[3.3]heptan-6-yl)oxy]phenyl]-5-oxo-7-thioxo-6,8-diazaspiro[3.4]octan-6-yl]-3-(trifluoromethyl)pyridine-2-carbonitrile] | 331 nM | 102% | > 15100 nM | 0.2% | 200 nM | 101% | > 15100 nM | 0.1% |
| COc1cc(N2C(=O)C3(CCC3)N(c3ccc4c(cnn4CCO)c3)C2=S)cnc1C#N [Cpd 167, 5-[8-[1-(2-hydroxyethyl)indazol-5-yl]-5-oxo-7-thioxo-6,8-diazaspiro[3.4]octan-6-yl]-3-methoxy-pyridine-2-carbonitrile] | 832 nM | 101% | > 15100 nM | -0.2% | 288 nM | 102% | > 15100 nM | 0% |
| Cn1ncc2cc(N3C(=S)N(c4cnc(C#N)c(Cl)c4)C(=O)C34CCC4)ccc21 [Cpd 168, 3-chloro-5-[8-(1-methylindazol-5-yl)-5-oxo-7-thioxo-6,8-diazaspiro[3.4]octan-6-yl]pyridine-2-carbonitrile] | 95.5 nM | 101% | > 15100 nM | 0% | 145 nM | 99.3% | > 15100 nM | 0.8% |
| COCCn1ncc2cc(N3C(=S)N(c4cnc(C#N)c(C(F)(F)F)c4)C(=O)C34CCC4)ccc21 [Cpd 170, 5-[8-[1-(2-methoxyethyl)indazol-5-yl]-5-oxo-7-thioxo-6,8-diazaspiro[3.4]octan-6-yl]-3-(trifluoromethyl)pyridine-2-carbonitrile] | 589 nM | 101% | > 15100 nM | 0.2% | 309 nM | 102% | > 15100 nM | 0.1% |
| COCCn1ncc2cc(N3C(=S)N(c4cnc(C#N)c(OC)c4)C(=O)C34CCC4)ccc21 [Cpd 173, 3-methoxy-5-[8-[1-(2-methoxyethyl)indazol-5-yl]-5-oxo-7-thioxo-6,8-diazaspiro[3.4]octan-6-yl]pyridine-2-carbonitrile] | 437 nM | 100% | > 15100 nM | 0.4% | 186 nM | 100% | > 15100 nM | 0.1% |
| CN1CC2CC1CC2Oc1ccc(N2C(=S)N(c3cnc(C#N)c(C(F)(F)F)c3)C(=O)C23CCC3)cc1 [Cpd 176, (R,S)-5-[8-[4-[(2-methyl-2-azabicyclo[2.2.1]heptan-5-yl)oxy]phenyl]-5-oxo-7-thioxo-6,8-diazaspiro[3.4]octan-6-yl]-3-(trifluoromethyl)pyridine-2-carbonitrile] | 479 nM | 104% | > 15100 nM | 0.3% | 269 nM | 101% | > 15100 nM | 0.1% |
| CN1CC2CC1CC2Oc1ccc(N2C(=S)N(c3cnc(C#N)c(C(F)(F)F)c3)C(=O)C23CCC3)cn1 [Cpd 177, (R,S)-5-[8-[6-[(2-methyl-2-azabicyclo[2.2.1]heptan-5-yl)oxy]-3-pyridyl]-5-oxo-7-thioxo-6,8-diazaspiro[3.4]octan-6-yl]-3-(trifluoromethyl)pyridine-2-carbonitrile] | 525 nM | 102% | > 15100 nM | 0.2% | 457 nM | 100% | > 15100 nM | 0.4% |
| COCCn1cc2ccc(N3C(=S)N(c4cnc(C#N)c(C(F)(F)F)c4)C(=O)C34CCC4)cc2n1 [Cpd 179, 5-[8-[2-(2-methoxyethyl)indazol-6-yl]-5-oxo-7-thioxo-6,8-diazaspiro[3.4]octan-6-yl]-3-(trifluoromethyl)pyridine-2-carbonitrile] | 1230 nM | 100% | > 15100 nM | -0.2% | 468 nM | 101% | > 15100 nM | -0.2% |
